Assay results from patent US9066912B2, “Drug-enhanced adhesion prevention” (Ethicon, Inc., priority 2003, dated 2015).
Values joined by “and” are separate entries in the source; they are usually repeats but may differ in a detail not shown here. Identical values can stand only once. “Also recorded” adds a separate entry of the source.

How the values were obtained:
[1] = Necropsy observations in the rabbit sidewall adhesion studies; format: in vivo; design: key to mild inflammation with granulomas (mark at adhesion tenacity): *: did have mild inflammation with the presence of granulomas; conditions: for mild inflammation with granulomas (mark at adhesion tenacity): individual animals, also seen in vehicle treated animals
Procedure: (§1) In the peritoneal sidewall model, rabbits were pre-anesthetized with 1.2 mg/kg acetylpromazine and anesthetized with a mixture of 55 mg/kg ketamine hydrochloride and 5 mg/kg xylazine intramuscularly. Following preparation for sterile surgery, a midline laparotomy was performed. A 3 cm×5 cm area of peritoneum and transversus abdominis muscle was removed on the right lateral abdominal wall. The cecum was exteriorized and digital pressure was exerted to create subserosal hemorrhages (trauma and loss of blood flow) over all cecal surfaces. The cecum was then returned to its normal anatomic position. Tranilast contained in a delivery vehicle as described below was placed in an Alzet® miniosmotic pump (Alza Corporation, Palo Alto, Calif.) to allow continuous release of the molecule through the postsurgical interval. The Alzet miniosmotic pump was placed in the subcutaneous space and a delivery tube connected the pump with the site of injury at the sidewall. Only the delivery vehicle was placed in the pump of control rabbits. The abdominal wall and skin were closed in a standardized manner.
The animals whose adhesion tenacities are marked by (*) did have mild inflammation with the presence of granulomas. The variability in the results may be due to a localized inflammation in […]. As the response was present in the vehicle treated animals, the inflammatory response may be due to prolonged administration of this vehicle. Therefore, the efficacy results might have been underestimated in light of the possible presence of a prolonged inflammatory response.

[2] = tested on: adhesion formation after peritoneal surgery (sidewall injury); assay: Rabbit peritoneal sidewall adhesion model; format: in vivo; design: key to Adhesion Tenacity: 0: No adhesions; 1: mild, easily dissectible adhesions; 2: moderate adhesions; non-dissectible, does not tear organ; 3: dense adhesions; non-dissectible, tears when removed; conditions: for mean adhesion area percentage: placebo control 100±0; for Adhesion Area Percentage / Adhesion Tenacity: individual animals; for efficacy in reducing post-operative adhesions: summary of the examples
Procedure: Multiple studies to confirm the efficacy of Tranilast in the reduction or inhibition of adhesion formation after peritoneal surgery were performed using a sidewall adhesion model.
as §1
After 21 days, the rabbits were sacrificed and the percentage of the area of the sidewall injury that was involved in adhesions was determined. In addition, the tenacity of the adhesion formed was scored using a system as follows:
With the sidewall model, an initial score to represent the overall extent of adhesions is given (0 to 3).
The percentage of a surface of the sidewall involved in adhesions to various organs are given in the tables below to quantify the overall adhesion score. A reduction in the area and the tenacity of the adhesions would be considered beneficial and efficacious.
The efficacy of Tranilast in inhibiting adhesion formation was evaluated using a single pump, filled with one of three dosage levels of mg of Tranilast per ml of delivery vehicle (0.625 mg/ml, 6.25 mg/ml or 62.5 mg/ml), or placebo control (70% Polyethylene glycol 400, 20% Tween 80, 10% N,N-dimethylacetamide (DMAC)). The drug was placed in an Alzet miniosmotic pump and delivered over 7 days at a rate of 10 microliter/hr. The animals were sacrificed after 21 days.
Following the procedure described in Example 1, Tranilast, at one of three dosage levels (0.625, 6.25 or 62.5 mg Tranilast/ml vehicle), and a placebo control (70% Polyethylene glycol 400, 20% Tween 80, 10% N,N-dimethylacetamide (DMAC)) was delivered over 7 days at a rate of 10 microliter/hr.
After 7 days, animals received anesthesia and a small incision was made in the skin after preparation for aseptic surgery. The pump was then replaced with a new pump and drug or placebo was delivered over a second period of 7 days at a rate of 10 microliter/hr.
After 7 more days, some of the animals received anesthesia and a second small incision was made in the skin after preparation for aseptic surgery. Again, the pump was replaced with another new pump and drug or placebo was delivered over a third period of 7 days at a rate of 10 microliter/hr.
All animals were sacrificed after 21 days.
Groups of animals received either oral dosing, or local delivery of Tranilast, or placebo control. In the animals that received local delivery, a single pump, filled with placebo (70% Polyethylene glycol 400, 20% Tween 80, 10% N,N-dimethylacetamide (DMAC)), or Tranilast (6.25 mg/ml), at 10 microliter/hour over 7 days starting with the day of surgery, was placed in the subcutaneous space. Certain animals received oral dosing (approximately 60 mg/kg). Oral dosing was either pre-operatively (once a day for the 5 days prior to surgery, with the last dose given 2 hours prior to surgery) or, in one group, pre- and post-operatively (from day 2 through day 21 post-surgery). For further clarification, the treatment groups are shown below.

[3] = tested on: TGF-β secretion, collagen synthesis, or cellular proliferation; conditions: any of the cellular assays tested to date, e.g. TGF-β secretion; cited from earlier work
[4] = Example 2, 2 and 3 week local dosing
[5] = Example 3, oral and/or local dosing
[6] = Example 1, 0.625 mg/ml local via pump, 10 microliter/hr over 7 days, sacrifice after 21 days
[7] = Example 1, 6.25 mg/ml local via pump, 10 microliter/hr over 7 days, sacrifice after 21 days
[8] = Example 1, 62.5 mg/ml local via pump, 10 microliter/hr over 7 days, sacrifice after 21 days
[9] = Example 3, oral 60 mg/kg 5 days pre-operatively and 6.25 mg/ml topically (pump, 7 days), 60 mg/kg
[10] = Example 3, oral 60 mg/kg, 5 days pre-operatively and 21 days post-operatively, no pump

## COc1ccc(C=CC(=O)Nc2ccccc2C(=O)O)cc1OC [Tranilast, N-(3,4-dimethoxycinnamoyl) anthranilic acid]
[1]; Example 1, 1 week local dosing
  clinical signs at necropsy: no clinical signs
  inflammation or granulomas at the site of administration: no inflammation or granulomas were observed
[1]; [4]
  clinical signs at necropsy: no clinical signs
  inflammation or granulomas at the site of administration: no inflammation or granulomas were observed grossly at the site of administration in the majority of animals
[1]; Example 2, 0.625 mg/ml local for 2 weeks
  mild inflammation with granulomas (mark at adhesion tenacity): *
[1]; Example 2, 6.25 mg/ml local for 2 weeks
  mild inflammation with granulomas (mark at adhesion tenacity): *
[1]; Example 2, 6.25 mg/ml local for 3 weeks
  mild inflammation with granulomas (mark at adhesion tenacity): *
[1]; Example 2, 62.5 mg/ml local for 2 weeks
  mild inflammation with granulomas (mark at adhesion tenacity): *
[1]; Example 2, 62.5 mg/ml local for 3 weeks
  mild inflammation with granulomas (mark at adhesion tenacity): *
[1]; [5]
  clinical signs at necropsy: no clinical signs
  inflammation or granulomas at the site of administration: no inflammation or granulomas were observed
[2]; Example 1, 0.625 mg/ml local, 1 week dosing, p=0.078
  mean adhesion area percentage: 82.9±8.1%
[2]; Example 1, 6.25 mg/ml local, 1 week dosing, p<0.001
  mean adhesion area percentage: 67.1±7.1%
[2]; Example 1, 62.5 mg/ml local, 1 week dosing, p=0.065
  mean adhesion area percentage: 78.6±9.6%
[2]; Example 1, 1 week local dosing, all doses
  tenacity of the adhesions formed (analysis of variance on the ranks): significant reductions in the tenacity of the adhesions
[2]; Example 1, 1 week local dosing, all doses (0.625, 6.25, 62.5 mg/ml)
  area of adhesion formation relative to the control: reduced the area of adhesion formation
[2]; [6]
  Adhesion Area Percentage: 100% (4×) and 60% (3×)
  Adhesion Tenacity: 2 (3×) and 1 (3×) and 3
[2]; [7]
  Adhesion Area Percentage: 70% (2×) and 100% and 80% and 50% (3×)
  Adhesion Tenacity: 1 (5×) and 2 (2×)
[2]; [8]
  Adhesion Area Percentage: 100% (3×) and 70% (2×) and 30% and 80%
  Adhesion Tenacity: 2 (3×) and 1 (3×) and 3
[2]; Example 2, 0.625 mg/ml local, 2 weeks
  mean adhesion area percentage: 75.1±14.5%
[2]; Example 2, 0.625 mg/ml local, 3 weeks
  mean adhesion area percentage: 48.6±8.8%
[2]; Example 2, 6.25 mg/ml local, 2 weeks
  mean adhesion area percentage: 78.8±12.0%
[2]; Example 2, 6.25 mg/ml local, 3 weeks
  mean adhesion area percentage: 77.1±12.1%
[2]; Example 2, 62.5 mg/ml local, 2 weeks
  mean adhesion area percentage: 72.5±9.8%
[2]; Example 2, 62.5 mg/ml local, 3 weeks
  mean adhesion area percentage: 64.3±10.9%
[2]; Example 2, 2 and 3 week local dosing, all doses
  tenacity of the adhesions formed (analysis of variance on the ranks): significant reductions in the tenacity of the adhesions
[2]; Example 2, 2 and 3 week local dosing, significant at the high dose at two weeks and at all doses at 3 weeks
  adhesion formation relative to placebo control: reductions in adhesion formation at all doses of drug and at both time points
[2]; Example 2, 0.625 mg/ml local via pump for 2 weeks (pump replaced at day 7), sacrifice after 21 days
  Adhesion Area Percentage: 50% and 100% (4×) and 80% and 0%
[2]; Example 2, 0.625 mg/ml local via pump for 2 weeks, sacrifice after 21 days
  Adhesion Tenacity: 1 (5×) and 0 and 2
[2]; Example 2, 0.625 mg/ml local via pump for 3 weeks (pump replaced at days 7 and 14), sacrifice after 21 days
  Adhesion Area Percentage: 10% and 50% (3×) and 80% and 30% and 70%
[2]; Example 2, 0.625 mg/ml local via pump for 3 weeks, sacrifice after 21 days
  Adhesion Tenacity: 1 (6×) and 2
[2]; Example 2, 6.25 mg/ml local via pump for 2 weeks (pump replaced at day 7), sacrifice after 21 days
  Adhesion Area Percentage: 100% (4×) and 70% and 0% and 80% (2×)
[2]; Example 2, 6.25 mg/ml local via pump for 2 weeks, sacrifice after 21 days
  Adhesion Tenacity: 1 (6×) and 0 and 2
[2]; Example 2, 6.25 mg/ml local via pump for 3 weeks (pump replaced at days 7 and 14), sacrifice after 21 days
  Adhesion Area Percentage: 70% and 100% (4×) and 20% and 50%
[2]; Example 2, 6.25 mg/ml local via pump for 3 weeks, sacrifice after 21 days
  Adhesion Tenacity: 1 (5×) and 2 (2×)
[2]; Example 2, 62.5 mg/ml local via pump for 2 weeks (pump replaced at day 7), sacrifice after 21 days
  Adhesion Area Percentage: 40% and 80% and 100% (3×) and 30% and 60% and 70%
[2]; Example 2, 62.5 mg/ml local via pump for 2 weeks, sacrifice after 21 days
  Adhesion Tenacity: 1 (6×) and 2 (2×)
[2]; Example 2, 62.5 mg/ml local via pump for 3 weeks (pump replaced at days 7 and 14), sacrifice after 21 days
  Adhesion Area Percentage: 50% (2×) and 40% and 30% and 100% (2×) and 80%
[2]; Example 2, 62.5 mg/ml local via pump for 3 weeks, sacrifice after 21 days
  Adhesion Tenacity: 1 (6×) and 2
[2]; Example 3, 6.25 mg/ml local only, p=0.039
  mean adhesion area percentage: 72.9±11.7%
[2]; Example 3, all groups of animals that received the drug
  tenacity of the adhesions formed (analysis of variance on the ranks): significant reductions in the tenacity of the adhesions
[2]; Example 3, all groups that received local delivery (Tables 13 and 16)
  area of adhesion formation: reductions in the area of adhesion formation
[2]; Example 3, 6.25 mg/ml local via pump over 7 days, no oral dosing
  Adhesion Tenacity: 1
[2]; Example 3, 6.25 mg/ml local via pump, 10 microliter/hour over 7 days, no oral dosing
  Adhesion Area Percentage: 100% (2×) and 60% and 80% (3×) and 10%
[2]; [9]
  Adhesion Area Percentage: 80% (2×) and 0% and 50% and 60% and 10%
  Adhesion Tenacity: 1 (5×) and 0
[2]; Example 3, oral 60 mg/kg 5 days pre-operatively and placebo topically (pump)
  Adhesion Area Percentage: 100%
[2]; Example 3, oral 60 mg/kg 5 days pre-operatively and placebo topically (pump), 60 mg/kg
  Adhesion Tenacity: 2 (4×) and 1 (2×)
[2]; [10]
  Adhesion Area Percentage: 100%
  Adhesion Tenacity: 2
[2]; Example 3, oral dosing alone, pre-operatively or pre- and post-operatively (Tables 14 and 15)
  area of adhesion formation / inhibition of adhesion formation: did not reduce the area of adhesion formation; also recorded: no inhibition of adhesion formation
[2]; Example 3, oral pre-operative and post-operative, no local
  mean adhesion area percentage: 100±0%
[2]; Example 3, oral pre-operative with topical 6.25 mg/ml, p=0.002
  mean adhesion area percentage: 46.7±14.1%
[2]; Example 3, oral pre-operative with topical placebo
  mean adhesion area percentage: 100±0%
[2]; Example 3, pre-operative oral administration in conjunction with local administration
  inhibition of adhesion formation: did result in inhibition of adhesion formation
[2]; delivered to the site via a local administrative route
  efficacy in reducing post-operative adhesions: efficacious
[2]; delivered via a systemic route
  efficacy in reducing post-operative adhesions: no efficacy was seen
[3]
  IC50 values in cellular assays: does not exhibit potent IC50 values
